Data: patent EP4775208A1, “USE OF PRMT5 INHIBITOR IN TREATMENT OF TUMORS OR CANCERS” (Apeiron Therapeutics (Hong Kong) Ltd., priority 2023, dated 2025)
pIC50: −log10 of the molar value. Like-named read-outs stand apart in the source and are kept apart here.

How the values were obtained:
[1] = tested on: HCT-116 MTAP(-/-) deficient cells; experiment: Inhibition of proliferation of HCT-116 MTAP(-/-) deficient cells (Cell-Titer Glo); type: cell-based; settings: 8 days
How it was run: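 Cells in log-phase growth, RPMI-1640 with 10% FBS, seeded and left overnight at 37°C, 5% CO2. Compound tested at 0–10,000 nM (10 points, 3-fold, 0.1% DMSO) for 8 days at 37°C, 5% CO2. Viability read by CellTiter-Glo luminescence.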

LU99 MTAP(-/-) cells = experiment: Inhibition of proliferation of LU99 MTAP(-/-) cells (CellTiter-Glo); type: cell-based; settings: cell proliferation, 6 days
Method: Test 3: Compound's inhibitory activity on proliferation of LU99 MTAP (-/-) cells.
(§1) Materials and Cells: The LU99 MTAP(-/-) cell line was purchased from Cobioer Biosciences (China). Cell culture media and fetal bovine serum (FBS) were purchased from Thermo Fisher Scientific (USA). 384-well plates were purchased from PerkinElmer (USA). The CellTiter-Glo assay kit was purchased from Promega (USA).
Cell Culture: LU99 MTAP(-/-) cells were cultured in a medium supplemented with 10% fetal bovine serum (FBS) at 37°C with 5% CO2. Only cells in the logarithmic growth phase were used for experiments.
(§2) Cell Proliferation Inhibition Assay: The antiproliferative activity of the compounds against LU99 MTAP(-/-) cells was assessed using the CellTiter-Glo assay kit. Cell suspensions were adjusted to the appropriate density and seeded into 384-well plates at a volume of 40 µL per well, then incubated overnight at 37°C with 5% CO2. Compounds (40 nL) were added to each well to achieve final concentrations ranging from 0 to 1,000 nM (starting concentration 1,000 nM, 2.5-fold serial dilutions, 10 dose points), with a final DMSO concentration of 0.2%. The cell plates were incubated at 37°C with 5% CO2 for 6 days. Subsequently, 40 µL of CellTiter-Glo reagent was added to measure cell viability.

[2] = tested on: LN18 MTAP-overexpressing cells; experiment: Inhibition of proliferation of LN18 MTAP-overexpressing cells (CellTiter-Glo); type: cell-based; settings: cell proliferation, 7 days
From the text: Test 6: Assay for Inhibitory Activity of Compounds against LN18 MTAP-Overexpressing Cell Proliferatio
as §1, with “LN18 MTAP-overexpressing” for “LU99 MTAP(-/-)”, “media,” for “media and”, “(FBS), and penicillin-streptomycin” for “(FBS)”
Cell Culture: LN18 MTAP-overexpressing cells were cultured in a medium supplemented with 10% fetal bovine serum (FBS) and 1% penicillin-streptomycin at 37°C with 5% CO2. Only cells in the logarithmic growth phase were used for experiments.
as §2, with “LN18 MTAP-overexpressing” for “LU99 MTAP(-/-)”, “10,000” for “1,000”, “3-fold” for “2.5-fold”, “9” for “10”, “[…].” for “0.2%.”, “7” for “6”

U87MG MTAP(-/-) cells = experiment: Inhibition of proliferation of U87MG MTAP(-/-) cells (CellTiter-Glo); type: cell-based; settings: Homo sapiens, U-87 MG, 144 h, cell proliferation, 6 days
How it was run: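 U87MG MTAP(-/-) cells in log phase, seeded overnight, then exposed 6 days at 37 °C, 5% CO2 to compound at 10,000 nM top, 3-fold dilutions, 10 points, 0.5% DMSO final. Viability read by CellTiter-Glo luminescence.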

NCI-H838 MTAP(-/-) cells = experiment: Inhibition of proliferation of NCI-H838 MTAP(-/-) cells (CellTiter-Glo); settings: read-out: IC50(nM) NCI-H838 MTAP(-/-)
MKN-45 = experiment: Mini cell panel: inhibition of proliferation of MKN-45 cells; type: cell-based
From the text: (§3) Test 9: Mini Cell Panel: Assay for Inhibitory Activity of Compounds against Proliferation of 20 Tumor Cell Lines
(§4) Materials and Cells: Fifteen MTAP(-/-) cell lines and five MTAP wild-type cell lines were purchased from ATCC (USA). Cell culture media, fetal bovine serum (FBS), and penicillin-streptomycin were purchased from Thermo Fisher Scientific (USA). 384-well plates were purchased from PerkinElmer (USA). The CellTiter-Glo assay kit was purchased from Promega (USA). Paclitaxel was used as the control compound.

U87MG = experiment: Mini cell panel: inhibition of proliferation of U87MG cells; type: cell-based; settings: MTAP (-/-)
From the text: as §3, §4

15 MTAP(-/-) cell lines = experiment: Mini cell panel: summary over the MTAP(-/-) cell lines; type: cell-based; settings: for selectivity, calculated based on the median values: MTAP wild-type vs MTAP(-/-) cell lines
From the text: as §3, §4

[3] = tested on: five MTAP wild-type cell lines; experiment: Mini cell panel: summary over the MTAP wild-type cell lines; type: cell-based
From the text: as §3, §4

[4] = Homo sapiens, MKN-45, MTAP (-/-)
[5] = read-out: median IC50, 15 MTAP(-/-) cell lines
[6] = read-out: median IC50, MTAP wild-type cells
[7] = span over the cell lines, read-out: IC50 values (range) against MTAP wild-type cells

IC50 ([1]; Homo sapiens, HCT-116, 192 h) [nM]	IC50 (U87MG MTAP(-/-) cells) [nM]	IC50 (NCI-H838 MTAP(-/-) cells; Homo sapiens, NCI-H838, 144 h) [nM]	pIC50 (15 MTAP(-/-) cell lines; span over the cell lines, read-out: IC50 values (range) against the 15 MTAP(-/-) cell lines)	Compound	IC50 (LU99 MTAP(-/-) cells; Homo sapiens, Lu-99, 144 h) [nM]	IC50 ([2]; Homo sapiens, LN-18, 168 h) [nM]	pIC50 (MKN-45; [4])	pIC50 (U87MG; Homo sapiens, U-87 MG)	selectivity, calculated based on the median values (15 MTAP(-/-) cell lines) [fold]	pIC50 (15 MTAP(-/-) cell lines; [5])	pIC50 [3, 6]	pIC50 [3, 7]	IC50 [1] [nM]	IC50 (LU99 MTAP(-/-) cells) [nM]	IC50 [2] [nM]	pIC50 (MKN-45; MTAP (-/-))	pIC50 (U87MG)	IC50 (NCI-H838 MTAP(-/-) cells; cell proliferation, 6 days, CellTiter-Glo) [nM]
5.6	70.8	66.8		[2H]C([2H])([2H])N(C(=O)c1ccc2nc(N)c3cncn3c2c1)[C@@H]1COc2cc(C(F)(F)F)ccc21 [Example 16, (S)-4-amino-N-(methyl-d3)-N-(6-(trifluoromethyl)-2,3-dihydrobenzofuran-3-yl)imidaz o[1,5-a]quinoxaline-8-carboxamide]	12.9	1200												
9.9	93.1		≤ 8.62	CN(C(=O)c1cc2c(cn1)nc(N)c1cncn12)[C@@H]1COc2cc(C(F)(F)F)ccc21 [Example 4, (S)-4-amino-N-methy 1-N-(6-(trifluoromethy 1)-2,3-dihydrobenzofuran-3-yl)imidazo[1,5-a]pyrido[3,4-e]pyrazine-8-carboxamide]		868	7.75	6.83	44.2	7.41	5.77	5.18 to 6.39						
				(S)-4-amino-7-fluoro-N-methyl-N-(6-(triflu oromethyl)-2,3-dihydr obenzofuran-3-yl)imi dazo[1,5-a]quinoxalin e-8-carboxamide [Example 29]					77.7	7.37	5.48		7.1	10.7	812	7.40	5.98	76.8
11	58.5	57.6		[2H]C([2H])([2H])N(C(=O)c1cc2c(cc1F)nc(N)c1cncn12)[C@@H]1COc2cc(C(F)(F)F)ccc21 [Example 41, (S)-4-amino-7-fluoro-N-(methyl-d3)-N-(6-(trifluoromethyl)-2,3-di hydrobenzofuran-3-yl)imidazo[1,5-a]quinox aline-8-carboxamide]	9.56	1970												

Compound	IC50 ([1]; Homo sapiens, HCT-116, 192 h) [nM]	IC50 (U87MG MTAP(-/-) cells) [nM]	IC50 (NCI-H838 MTAP(-/-) cells; Homo sapiens, NCI-H838, 144 h) [nM]	pIC50 (15 MTAP(-/-) cell lines; span over the cell lines, read-out: IC50 values (range) against the 15 MTAP(-/-) cell lines)	IC50 (LU99 MTAP(-/-) cells; Homo sapiens, Lu-99, 144 h) [nM]	IC50 ([2]; Homo sapiens, LN-18, 168 h) [nM]	pIC50 (MKN-45; [4])	pIC50 (U87MG; Homo sapiens, U-87 MG)	selectivity, calculated based on the median values (15 MTAP(-/-) cell lines) [fold]	pIC50 (15 MTAP(-/-) cell lines; [5])	pIC50 [3, 6]	pIC50 [3, 7]	IC50 [1] [nM]	IC50 (LU99 MTAP(-/-) cells) [nM]	IC50 [2] [nM]	pIC50 (MKN-45; MTAP (-/-))	pIC50 (U87MG)	IC50 (NCI-H838 MTAP(-/-) cells; cell proliferation, 6 days, CellTiter-Glo) [nM]
CN(C(=O)c1ccc2nc(N)c3cncn3c2c1)[C@@H]1COc2cc(C(F)(F)F)ccc21 [Example 107, (S)-4-amino-N-methy 1-N-(6-(trifluoromethy 1)-2,3-dihydrobenzofuran-3-yl)imidazo[1,5-a]quinoxaline-8-carboxamide]	7.4	111	67.8		13.2	1370	7.37	6.49	58.8	7.25	5.48	≤ 6.11						
